Reference: patent publication US20250177275A1, “ACTIVE AGENT MODULATING THE ACTIVITY OF AN ION CHANNEL FOR USE IN INHIBITION OF SKIN AGING” (Cutaneon - Skin & Hair Innovations GmbH, priority 2022, published 2025)
Entries after “also recorded” stand apart in the source; their conditions may differ.

Experiments:
Collagen 17A [1] = assay: Collagen 17A immunofluorescence, quantitative immunohistomorphometry in ex vivo human skin organ culture; assay type: cell-based; details: 3 days
Procedure: (§1) Samples of human abdominal, breast, temporal, and occipital skin were obtained with written patient consent and under ethical approval from healthy adult human subjects during elective plastic surgery performed for cosmetic reasons. Full-thickness human skin samples were prepared as 4-6 mm punches, placed on filter paper, and cultured at the air-liquid interphase under serum-free conditions in William's E medium supplemented only with penicillin-streptomycin, insulin, hydrocortisone and L-glutamine, as described previously.
For modelling the application of the actives directly to the skin surface (topical application) 2,5-dimethylpyrazine (DMP), a TRPM5 activator was dissolved at 37° C. at a final concentration of 12.5 mM in a 50% v/v solution of Isopropanol in PBS containing 1 g/mL of Polyethylene glycol 6000. […]
(§2) Images were then obtained with a digital microscope (Keyence). Quantitative immunohistomorphometric analysis was performed by assessing the relative fluorescent or color intensity in standardized reference areas with ImageJ (NIH; Bethesda, MD, USA). […] Two skin punch biopsies were analyzed per experimental group unless indicated otherwise. […]

Cytokeratin 15 [2] = assay: Cytokeratin 15 immunofluorescence, quantitative immunohistomorphometry in ex vivo human skin organ culture; assay type: cell-based; details: topical DMP 12.5 mM, 3 days, vs vehicle
Procedure: as §1, with “previously. […]” for “previously.”
as §2
After consecutive rinses with PBS, samples were incubated with Alexa fluorophore-conjugated secondary antibodies diluted 1:500 in antibody diluent containing 2% normal goat serum for 45 minutes at room temperature. […] Image acquisition and quantitative immunohistomorphometric analysis were performed similar to as described above.

Lamin B1 = Lamin B1 immunofluorescence, quantitative immunohistomorphometry in ex vivo human skin organ culture; assay type: cell-based; details: systemic (medium) DMP 12.5 μM, 3 days, vs vehicle
PGC1α = PGC1α immunofluorescence, quantitative immunohistomorphometry in ex vivo human skin organ culture; assay type: cell-based; details: systemic (medium) DMP 12.5 μM, 3 days, vs vehicle
Sirtuin-1 = Sirtuin-1 immunohistochemistry, quantitative immunohistomorphometry in ex vivo human skin organ culture; assay type: cell-based; details: systemic (medium) DMP 12.5 μM, 3 days, vs vehicle
Ki67 [3] = assay: Ki67 immunofluorescence, quantitative immunohistomorphometry in ex vivo human skin organ culture; assay type: cell-based; details: 3 days
Procedure: as §1, with “previously. […]” for “previously.”
as §2
For the detection of Ki67, formalin-fixed human skin frozen sections were blocked with PBS containing 10% normal goat serum (NGS) for 30 minutes at room temperature and then incubated with an anti-Ki67 antibody diluted 1:800 in PBS containing 2% NGS overnight at 4° C. […] Image acquisition and quantitative immunohistomorphometric analysis were performed similar to as described above.

Collagen 17A [4] = assay: Collagen 17A immunofluorescence in normal human epidermal keratinocyte (NHEK) culture; assay type: cell-based; details: 24 hrs; for expression of Collagen 17A in NHEKs: vs vehicle
Procedure: (§3) Primary adult normal human epidermal keratinocytes (NHEK) were cultured in serum-free Keratinocyte Growth Medium 2 (KGM2) up to passage 6 and were seeded on glass slides at a density of 15-20×10^3 cells/cm^2. The next day, the KGM2 culture medium was changed and supplemented with hereafter indicated compounds, their combination or ethanol as vehicle control.
(§4) For application of the active to the medium (systemic application), 2,5-dimethylpyrazine (DMP), a TRPM5 activator, the DMP stock was dissolved at 37° C. at a final concentration of 10, 12.5 or 100 nM in KGM2. For triphenylphosphine oxide (TPPO), a TRPM5 inhibitor, a stock was prepared in ethanol and dissolved at 37° C. at a final concentration of 50 μM in KGM2. After 24 hours, NHEKs were washed in PBS and then either fixed in 4% formaldehyde for 10 minutes are room temperature (immunofluorescence labeling) or lysed in Buffer RLT containing 1% β-mercaptoethanol (for quantitative RT-qPCR).
(§5) For the detection of Collagen 17A in cell cultures, formalin-fixed NHEKs were permeabilized in PBS containing 0.05% Triton™ X-100 for 10 minutes, rinsed in PBS and then blocked in PBS containing 10% normal goat serum (NGS) for 20 minutes. Next, samples were incubated with an anti-Collagen 17A diluted 1:100 in antibody diluent overnight at 4° C. After consecutive rinses with PBS, samples were incubated with Alexa fluorophore-conjugated secondary antibodies diluted 1:500 in antibody diluent containing 2% NGS for 45 minutes at room temperature. […]
(§6) For the analysis on NHEKs, images were then obtained with a digital microscope (Keyence). Quantitative immunohistomorphometric analysis was performed by assessing the number of positive cells or the relative fluorescence intensity in standardized reference areas with ImageJ (NIH; Bethesda, MD, USA). Briefly, for the evaluation of Collagen 17A, the relative target-specific intensity was measured in 14-20 cells per microscopic field. For each parameter 14-20 microscopic fields were evaluated.

Cytokeratin 15 [5] = assay: Cytokeratin 15 immunofluorescence in normal human epidermal keratinocyte (NHEK) culture; assay type: cell-based; details: 24 hrs; for expression of Cytokeratin 15 in NHEKs: vs vehicle
Procedure: as §3, §4
as §5, with “Cytokeratin 15” for “Collagen 17A”, “anti-Cytokeratin 15” for “anti-Collagen 17A”
as §6, with “Cytokeratin 15,” for “Collagen 17A,”

COL17A1 = COL17A1 mRNA by RT-qPCR in NHEK culture; assay type: cell-based, human; details: DMP 10 nM, 24 hrs, normalized to GAPDH, vs vehicle
Procedure: as §3
as §4, with “For triphenylphosphine oxide (TPPO), a TRPM5 inhibitor, a stock was prepared in ethanol and dissolved at 37° C. at a final concentration of 50 μM in KGM2.” left out
(§7) For the assessment of Collagen 17A and Cytokeratin 15 specific mRNA transcripts (COL17A, KRT15) by quantitative RT-qPCR technology, RNA was isolated from cells lysed in Buffer RLT containing 1% β-mercaptoethanol using the RNeasy Mini Kit according to the manufacturer's instructions. RNA purity and concentrations were determined using the BioDrop. […] Real-time quantitative polymerase chain reaction (qRT-PCR) was run in triplicate using TaqMan™ Fast Advanced Master Mix and TaqMan Gene Expression Assays on the QuantStudio. […]

KRT15 = KRT15 mRNA by RT-qPCR in NHEK culture; assay type: cell-based, human; details: DMP 100 nM, 24 hrs, normalized to GAPDH, vs vehicle
Procedure: as §3
as §4, with “For triphenylphosphine oxide (TPPO), a TRPM5 inhibitor, a stock was prepared in ethanol and dissolved at 37° C. at a final concentration of 50 μM in KGM2.” left out
as §7

Ki67 [6] = assay: Ki67 positive cell count (proliferation) in NHEK culture; assay type: cell-based, human; details: DMP 100 nM, 24 hrs, vs vehicle
Procedure: as §3
as §4, with “For triphenylphosphine oxide (TPPO), a TRPM5 inhibitor, a stock was prepared in ethanol and dissolved at 37° C. at a final concentration of 50 μM in KGM2.” left out, “RT-qPCR). […]” for “RT-qPCR).”
as §6, with “Ki67,” for “Collagen 17A,”, “number of cells with positive nuclear staining per field” for “relative target-specific intensity”, “counted and normalized to the total number of DAPI positive nuclei.” for “measured in 14-20 cells per microscopic field.”

[7] = test system: Phospho-Histone H3 Ser10 (pH3S10); assay: Phospho-Histone H3 Ser10 (pH3S10) positive cell count in NHEK culture; assay type: cell-based, human; details: DMP 100 nM, 24 hrs, vs vehicle
Procedure: as §3
as §4, with “For triphenylphosphine oxide (TPPO), a TRPM5 inhibitor, a stock was prepared in ethanol and dissolved at 37° C. at a final concentration of 50 μM in KGM2.” left out, “RT-qPCR). […]” for “RT-qPCR).”
as §6, with “pH3S10,” for “Collagen 17A,”, “number of cells with positive nuclear staining per field” for “relative target-specific intensity”, “counted and normalized to the total number of DAPI positive nuclei.” for “measured in 14-20 cells per microscopic field.”

[8] = topical DMP 12.5 mM, vs vehicle
[9] = topical TPPO 1.5 mM with topical DMP 12.5 mM

Structure (SMILES)	expression of Collagen 17A in the basal layers of the epidermis (Collagen 17A [1]; [8])	expression of Cytokeratin 15 in the basal layers of the epidermis (Cytokeratin 15 [2])	expression of Lamin B1 in the epidermis (Lamin B1)	expression of PGC1α in the epidermis (PGC1α)	expression of Sirtuin 1 in the epidermis (Sirtuin-1)	expression of Ki67 in the epidermis (Ki67 [3]; [8])	expression of Collagen 17A in NHEKs (Collagen 17A [4]; DMP 12.5 nM)	expression of Collagen 17A in NHEKs (Collagen 17A [4]; DMP 100 nM)	expression of Cytokeratin 15 in NHEKs (Cytokeratin 15 [5]; DMP 12.5 nM)	expression of Cytokeratin 15 in NHEKs (Cytokeratin 15 [5]; DMP 100 nM)	gene expression of COL17A1 (RT-qPCR) (COL17A1)	gene expression of KRT15 (RT-qPCR) (KRT15)	number of Ki67 positive (proliferating) NHEKs (Ki67 [6])	number of pH3S10 positive (dividing and proliferating) NHEKs [7]	effect on DMP-induced upregulation of Collagen 17A expression (Collagen 17A [1]; [9])	effect on DMP-induced upregulation of Ki67 expression (Ki67 [3]; [9])	effect on DMP-induced upregulation of Collagen 17A expression (Collagen 17A [4]; TPPO 50 μM with DMP 100 nM)	effect on DMP-induced upregulation of Cytokeratin 15 expression (Cytokeratin 15 [5]; TPPO 50 μM with DMP 100 nM)
Cc1cnc(C)cn1 [DMP, 2,5-dimethylpyrazine]	upregulate; also recorded: markedly increases	markedly increases	markedly increases	markedly increases	markedly increases	upregulate	markedly increases	upregulate	markedly increases	upregulate	markedly increases	markedly increases	markedly increases	markedly increases				
O=P(c1ccccc1)(c1ccccc1)c1ccccc1 [TPPO, triphenylphosphine oxide, reference compound]															prevented the effect	prevented the effect	prevented the effect	prevented the effect
